Consider one compound from US20220323761A1, “METHOD FOR INDUCING HIBERNATION-LIKE STATE AND DEVICE SAME” (University of Tsukuba, priority 2019, published 2022).

Common to all, as to format: in vivo
Data set [1] addresses T1, hM3Dq in iCre-positive neurons (Homo sapiens, UniProt P20309, A239G/Y149C).
T1 construct: mCherry (C); expressed in transfected cells; host or cells: iCre-expressing neurons of Qrfp-iCre; Rosa26^dreaddm3 mice (CAG-hM3Dq-mCherry at the Rosa26 locus, in vivo)
The data set can be described thus: Infrared thermography and behaviour of Qrfp-iCre; Rosa26^dreaddm3 mice after IP CNO. From the text:
For thermographic analysis, the mice were inserted into an experiment cage (25×15×10 cm) and monitored using an infrared thermal imaging camera (InfReC R500 EX; Nippon Avionics) placed 30 cm above the cage floor. To clearly detect the surface temperature, the back hair was removed using hair clippers one day prior to the start of the experiment. Thermograms of DREADD and optogenetic experiments were collected at 0.5 Hz and 1 Hz, respectively, and analyzed using the InfReC Analyzer NS9500 Professional software (Nippon Avionics). The highest temperature of one frame was used as the TS of the animal (FIG. 1d).
(§1) The Dreadd agonist CNO (clozapine N-oxide, Abcam, ab141704) was dissolved in physiological saline at a dose of 100 μg/mL, and the solution was frozen at −20° C. The CNO solution was thawed on site and then administered to each mouse intraperitoneally at a dose of 1 mg/kg. The adenosineAl receptor agonist CHA (N^6-cyclohexyl adenosine, Sigma-Aldrich, C9901) was dissolved in physiological saline at a concentration of 250 μg/mL, and the solution was administered intraperitoneally to each mouse at a dose of 2.5 mg/kg.

Data set [2] concerns the target T2, hM3Dq in Q-neurons (Homo sapiens, UniProt P20309, A239G/Y149C).
T2 construct: mCherry (C); expressed in transfected cells; host or cells: QRFP-producing (Q) neurons of Qrfp-iCre mice transduced in vivo with AAV10-EF1α-DIO-hM3Dq-mCherry
Put plainly: Body temperature, respiratory gas, ECG, EEG, respiration and serum analysis of Q-hM3D mice after IP CNO (QIH).
Description: (§2) In order to record the core body temperature, oxygen consumption amount, EEG, ECG, and respiratory patterns, each animal was housed in a temperature controlled chamber (HC-100, Shin Factory or LP-400P-AR, Nippon Medical & Chemical Instruments Co., Ltd.). In order to continuously record the TB (intraperitoneal temperature), a telemetry temperature sensor (TA11TA-F10, DSI) was implanted into the animal's abdominal cavity under general inhalation anesthesia at least 7 days prior to the recording. The VO 2 and carbon dioxide discharge rate (VCO2) of the animal were continuously recorded using a respiratory gas analyzer (ARCO-2000 mass spectrometer, ARCO System). The respiratory quotient was calculated from the ratio of VCO2/VO2.
The EEG and ECG were recorded using a implanted remote measurement transmitter (F20-EET or HD-X02, DSI). For EEG recording, two stainless steel screws (1 mm in diameter) were soldered to a wire of a telemetry transmitter and inserted under general anesthesia through the skull of the cortex (AP, 1.00 mm; right, 1.50 mm from bregma or lambda). Two other wires from the transmitter were placed on the surface of the thoractic cavity, and an ECG was recorded. The mice were allowed to recover from surgery for at least 10 days. An EEG/ECG data collecting system consisted of transmitters, an analog-digital converter and a recording computer with the software Ponemah Physiology Platform (version 6.30, DSI). The sampling rate was 500 Hz for both the EEG and the ECG, and the data was converted into ASCII format for review. The heart rate was evaluated through a visual inspection of the waveform.
The respiratory flow was recorded using a non-invasive respiratory flow recording system^35. Specifically, a mouse was placed in metabolic chamber (TMC-1213-PMMA, Minamiderika Shokai) having an air flow of at least 0.3 L/min. The chamber was connected to a pressure sensor (PMD-8203-3G, Biotex), and the pressure difference between the outside and inside of the chamber was detected. If the animal is breathing, the pressure difference from the outside to the inside increases during inhalation and decreases during exhalation^35. An analog signal output from the sensor was converted to a digital signal by an AD converter (NI-9205, National Instruments) at 250 Hz, and stored in a computer using data logging software developed by Biotex Inc.
as §1
Blood was collected from the mice under anesthesia through a left ventricular puncture using a 25 gauge needle. The collected blood was stored on ice for less than 2 hours. The sample was centrifuged at 2000 G for 10 minutes at 4° C., and the supernatant was collected and frozen at −30° C. The frozen serum specimens were sent to FUJIFILM Wako Pure Chemical Corporation, and the concentrations of Na (mEq/L), K (mEq/L), Cl (mEq/L), AST (IU/L), ALT (IU/L) LDH (IU/L), CK (IU/L), GLU (mg/dL), and total ketone bodies (μmol/L) were measured.

Data set [3] addresses T2, hM3Dq in Q-neurons. The data set can be described thus: Estimation of thermoregulatory parameters G, H and TR during CNO-induced QIH in Q-hM3D mice.
Description: as §2, §1
To evaluate the thermoregulatory system under QIH and normal conditions, the heat loss and heat production of the animals were described in a hierarchical multilayer model (FIG. 3c to FIG. 3k, code folder QIH_GTRH). Three parameters of G, TR and H under two metabolic conditions, that is, normal and QIH conditions, were estimated from a metabolically stable state of the animals at various TAs. The detailed method has been previously described^3. In summary, a linear model formed from the controllable parameter TA and the observable parameters TB and VO2 was fitted to the experimental results for both TB and VO2 using TA as a predictor having normal distribution noise. Next, G, TR, and H were estimated using the post-distribution of the slope and intercept coefficients for each model. […]

Where only a bound is given, the exact number is not on record here.

T1 sequence (P20309 whole entry Y149C/A239G): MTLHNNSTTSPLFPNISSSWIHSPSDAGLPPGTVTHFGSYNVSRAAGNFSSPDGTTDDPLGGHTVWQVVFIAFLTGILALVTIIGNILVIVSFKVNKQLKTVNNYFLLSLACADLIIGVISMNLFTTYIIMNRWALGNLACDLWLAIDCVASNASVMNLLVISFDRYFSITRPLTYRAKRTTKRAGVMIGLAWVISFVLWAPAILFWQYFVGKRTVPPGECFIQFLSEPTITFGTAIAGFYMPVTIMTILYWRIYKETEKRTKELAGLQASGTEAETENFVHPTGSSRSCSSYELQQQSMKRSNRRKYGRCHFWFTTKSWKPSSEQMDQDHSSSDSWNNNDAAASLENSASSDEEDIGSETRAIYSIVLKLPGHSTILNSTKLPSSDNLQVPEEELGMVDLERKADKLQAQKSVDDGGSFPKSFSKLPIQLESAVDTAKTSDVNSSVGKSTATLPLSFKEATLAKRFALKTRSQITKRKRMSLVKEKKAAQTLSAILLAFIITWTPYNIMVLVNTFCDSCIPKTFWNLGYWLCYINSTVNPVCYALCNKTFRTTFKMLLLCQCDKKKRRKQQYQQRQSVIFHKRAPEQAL
T2 sequence (P20309 whole entry Y149C/A239G, the tested form may be a part): as the sequence (P20309 whole entry Y149C/A239G) above

With `C[N+]1([O-])CCN(C2=Nc3cc(Cl)ccc3Nc3ccccc32)CC1` [CNO, clozapine N-oxide], in data set [1], the “duration of TS reduction” value is recorded as “approximately 12 hours” and the “onset of TS reduction after administration” value is “approximately 5 minutes”. The “onset of sustained immobility after injection” value in data set [1] (intraperitoneal CNO) is reported as “approximately 30 minutes”. Moreover, the “surface body temperature (TS) effect” value in data set [1] (thermography camera) is listed as “significantly sustained hypothermia”. Further, at hM3Dq in Q-neurons [2] (IP injection, Q-hM3D mice), the “duration of extremely low TB state (below 30° C.)” value was no less than 48 h and the “hypothermia compared with Qrfp-iCre; Rosa26^dreaddm3 mice” value is “deeper, longer sustained hypothermia”. In addition, on hM3Dq in Q-neurons [2] (Q-hM3D mice), the “QIH after repeated injections in the same mice” value is given as “reproducible”, the “condition of mice after recovery from QIH” value is on record as “healthy”, the “electroencephalogram (EEG) in QIH” value was “very low amplitude” and the “induction of QIH” value was “effectively induces QIH”. Besides, the tail temperature entry on hM3Dq in Q-neurons [2] (Q-hM3D mice, 0.5 hours after IP CNO) was “increases”. Moreover, on hM3Dq in Q-neurons [2] (Q-hM3D mice, CNO-induced hypothermic state), the “O2 consumption rate (VO2) change” value was “significant reduction”. Moreover, the “TB change after administration” value on hM3Dq in Q-neurons [2] (Q-hM3D mice, concurrently with Ts) was “decreases”. Besides, at hM3Dq in Q-neurons [2] (TA=20° C., one dose 1 mg/kg), the “duration of QIH with TB of less than 30° C.” value was no less than 48 h and the “time for VO2 to fully return to normal” value is recorded as “about 1 week”. In addition, the “posture during QIH” value on hM3Dq in Q-neurons [2] (TA=28° C., Q-hM3D mice, n=4) is reported as “extended posture”. Moreover, at hM3Dq in Q-neurons [2] (blood serum chemical data), the “blood glucose levels in QIH” value is listed as “reduced”. Moreover, the “effect of CNO on TB with TeTxLC co-expressed in Q-neurons” value at hM3Dq in Q-neurons [2] (simultaneous infusion of AAV2/9-hSyn-DIO-TeTxLC-eYFP and AAV10-EF1α-DIO-hM3Dq-mCherry) was “completely eliminated”. The compound further registered a heart rate at hM3Dq in Q-neurons [2] (two hours after CNO injection, average of n=3, 758 two hours prior) of 215 beats/min. The VO2 on hM3Dq in Q-neurons [2] (two hours after CNO injection, 3.60 prior) is 1.17 mL/g/h. Further, the respiratory rate entry at hM3Dq in Q-neurons [2] (two hours after CNO injection, 333 prior) is recorded as “undetectable”. Also, the “reduction in H at each median” value on hM3Dq in Q-neurons [3] (QIH versus normal state) is 95.3%. Further, the “TB and VO2 versus control at every TA” value on hM3Dq in Q-neurons [3] (eleven hours after IP injection, TA 8-32° C.) was “low TB and VO2”. In addition, the “difference in TR at each median” value on hM3Dq in Q-neurons [3] (normal versus QIH) was 8.41 °C.
